Measurements published in patent US6861390B2, “Derivatives of UK-2A” (priority 2001, dated 2005).
Where two headings read alike, the source gives them in different places.

Experiments:
Ustilago maydis (USTIMA) = assay: microbe, parasite or virus in culture; format: cell-based; conditions: Mycosarcoma maydis, read-out: T12 USTIMA in vitro Growth Inhibition
[1] = system: Mycosphaerella graminicola (Septoria tritici, SEPTTR); assay: microbe, parasite or virus in culture; format: cell-based; conditions: Zymoseptoria tritici, read-out: T11 SEPTTR in vitro Growth Inhibition
[2] = system: Stagonospora nodorum (Leptosphaeria nodorum, LEPTNO); assay: microbe, parasite or virus in culture; format: cell-based; conditions: Parastagonospora nodorum, read-out: T7 LEPTNO in vitro Growth Inhibition
[3] = system: Leptosphaeria nodorum (LEPTNO); assay: Glume Blotch of Wheat, whole plant 24 Hour Protectant (T2); conditions: Parastagonospora nodorum, read-out: T2 LEPTNO in vivo 1 Day Protectant, control of fungal infection
[4] = system: Phytophthora infestans (PHYTIN); assay: microbe, parasite or virus in culture; format: cell-based; conditions: in Secale cereale, read-out: T8 PHYTIN in vitro Growth Inhibition
[5] = system: Erysiphe graminis (ERYSGT); assay: Powdery Mildew of Wheat, whole plant 24 Hour Protectant (T1); conditions: Blumeria graminis, in Triticum aestivum, read-out: T1 ERYSGT in vivo 1 Day Protectant, control of fungal infection
Protocol: Compound formulation was accomplished by dissolving technical materials in acetone, with serial dilutions then made in acetone to obtain desired concentrations. Final treatment volumes were obtained by adding 9 volumes 0.01% Triton X-100.
Powdery Mildew of Wheat (Erysiphe graminis—ERYSGT) (24 Hour Protectant): Wheat (cultivar Monon) was grown in a soilless peat-based potting mixture (“Metromix”) and mineral soil (50/50 mix) until the seedlings were 10-20 cm tall. These plants were then sprayed to run-off with the test compound at a rate of 100 ppm. After 24 hours the test plants were inoculated by dusting with conidia from powdery mildew infected wheat plants. The plants were then transferred to the greenhouse until disease developed on the untreated control plants.

[6] = system: Magnaporthe grisea (Pyricularia oryzae, PYRIOR); assay: microbe, parasite or virus in culture; format: cell-based; conditions: read-out: T9 PYRIOR in vitro Growth Inhibition
[7] = system: Rhizoctonia solani (RHIZSO); assay: microbe, parasite or virus in culture; format: cell-based; conditions: read-out: T10 RHIZSO in vitro Growth Inhibition
[8] = system: Phytophthora infestans (PHYTIN); assay: whole plant or invertebrate; conditions: in Solanum lycopersicum, 24 h, read-out: T3 PHYTIN in vivo 1 Day Protectant, control of fungal infection
[9] = system: Puccinia recondita (PUCCRT); assay: Brown Rust of Wheat, whole plant 24 Hour Protectant (T5); conditions: read-out: T5 PUCCRT in vivo 1 Day Protectant, control of fungal infection
[10] = system: Septoria tritici (SEPTTR); assay: Leaf Blotch of Wheat, whole plant 24 Hour Protectant (T6); conditions: Zymoseptoria tritici; wheat (cultivar Monon), sprayed at 100 ppm, inoculated after 24 hours; read-out: T6 SEPTTR in vivo 1 Day Protectant, control of fungal infection
[11] = wheat (cultivar Yuma), sprayed at 100 ppm, inoculated after 24 hours

SMILES	inhibition at 25 ppm (Ustilago maydis (USTIMA)) [%]	inhibition at 25 ppm [1] [%]	inhibition at 25 ppm [2] [%]	pest or weed control at 100 ppm [3, 11] [%]	inhibition at 25 ppm [4] [%]	pest or weed control at 100 ppm [5] [%]	inhibition at 25 ppm [6] [%]	inhibition at 25 ppm [7] [%]	pest or weed control at 100 ppm [8] [%]	pest or weed control at 100 ppm [9, 11] [%]	pest or weed control at 100 ppm [10] [%]	pest or weed control at 100 ppm ([3]; 24 h) [%]	pest or weed control at 100 ppm ([9]; 24 h) [%]
CCCOCOc1c(OC)ccnc1C(=O)N[C@H]1COC(=O)[C@H](Cc2ccccc2)[C@@H](OC(=O)C(C)C)[C@H](C)OC1=O [Compound 6]	< 80	< 80	> 80	75 to 100	< 80	25 to 74	< 80	< 80	< 25	75 to 100			
COc1ccnc(C(=O)N[C@H]2COC(=O)[C@H](Cc3ccccc3)[C@@H](OC(=O)C(C)C)[C@H](C)OC2=O)c1OCOC(C)(C)C [Compound 8]	> 80	< 80	> 80	75 to 100	< 80	< 25	< 80	< 80	< 25	75 to 100	75 to 100		
COCCOCOc1c(OC)ccnc1C(=O)N[C@H]1COC(=O)[C@H](Cc2ccccc2)[C@@H](OC(=O)C(C)C)[C@H](C)OC1=O [Compound 11]				75 to 100		25 to 74			< 25	75 to 100			
COCC(C)OCOc1c(OC)ccnc1C(=O)N[C@H]1COC(=O)[C@H](Cc2ccccc2)[C@@H](OC(=O)C(C)C)[C@H](C)OC1=O (stereo partly shown) [Compound 12]	> 80	> 80	> 80	75 to 100	< 80	25 to 74	> 80	> 80	< 25	75 to 100	75 to 100		
COc1ccnc(C(=O)N[C@H]2COC(=O)[C@H](Cc3ccccc3)[C@@H](OC(=O)C(C)C)[C@H](C)OC2=O)c1OC(C)OC (stereo partly shown) [Compound 16]	< 80	> 80	> 80	75 to 100	< 80	< 25	> 80	< 80	< 25				
COc1ccnc(C(=O)N[C@H]2COC(=O)[C@H](Cc3ccccc3)[C@@H](OC(=O)C(C)C)[C@H](C)OC2=O)c1OCOCCOC(C)=O [Compound 17]	< 80	> 80	> 80	75 to 100	< 80	< 25	< 80	> 80	< 25	75 to 100	75 to 100		
CCC(=O)OCOc1c(OC)ccnc1C(=O)N[C@H]1COC(=O)[C@H](Cc2ccccc2)[C@@H](OC(=O)C(C)C)[C@H](C)OC1=O [Compound 21]	< 80	> 80	> 80	75 to 100	< 80	25 to 74	> 80	< 80	< 25	75 to 100	75 to 100		
COc1ccnc(C(=O)N[C@H]2COC(=O)[C@H](Cc3ccccc3)[C@@H](OC(=O)C(C)C)[C@H](C)OC2=O)c1OCOC(=O)C(C)C [Compound 23]	> 80	< 80	> 80		< 80	25 to 74	< 80	< 80	< 25			75 to 100	75 to 100
COCC(=O)OCOc1c(OC)ccnc1C(=O)N[C@H]1COC(=O)[C@H](Cc2ccccc2)[C@@H](OC(=O)C(C)C)[C@H](C)OC1=O [Compound 30]	> 80	< 80	> 80	75 to 100	< 80	75 to 100	> 80	> 80	< 25	75 to 100	75 to 100		
COc1ccnc(C(=O)N[C@H]2COC(=O)[C@H](Cc3ccccc3)[C@@H](OC(=O)C(C)C)[C@H](C)OC2=O)c1OCOC(=O)OC(C)C [Compound 47]				75 to 100		< 25			< 25	75 to 100			
C=CCO[C@H]1[C@H](C)OC(=O)[C@@H](NC(=O)c2nccc(OC)c2OCOC(C)=O)COC(=O)[C@@H]1Cc1ccccc1 [Compound 52]	< 80	> 80	> 80	75 to 100	< 80	< 25	> 80	> 80	< 25	75 to 100			
COc1ccnc(C(=O)N[C@H]2COC(=O)[C@H](Cc3ccccc3)[C@@H](OCC(C)C)[C@H](C)OC2=O)c1OCOCC(C)C [Compound 65]				75 to 100		< 25			< 25	75 to 100	75 to 100		
COCCOC(C)C(=O)OCOc1c(OC)ccnc1C(=O)N[C@H]1COC(=O)[C@H](Cc2ccccc2)[C@@H](OC(=O)C(C)C)[C@H](C)OC1=O (stereo partly shown) [Compound 66]	< 80	< 80	< 80	75 to 100	< 80		< 80	< 80	< 25	75 to 100			
COc1ccnc(C(=O)N[C@H]2COC(=O)[C@H](Cc3ccccc3)[C@@H](OC(=O)C(C)C)[C@H](C)OC2=O)c1OCOC(=O)C(C)OC (stereo partly shown) [Compound 67]	> 80	< 80	< 80	75 to 100	< 80		< 80	< 80	< 25	75 to 100			
CCOC(C)C(=O)OCOc1c(OC)ccnc1C(=O)N[C@H]1COC(=O)[C@H](Cc2ccccc2)[C@@H](OC(=O)C(C)C)[C@H](C)OC1=O (stereo partly shown) [Compound 68]	> 80	> 80	> 80	75 to 100	< 80		< 80	> 80	< 25	75 to 100			
CCCOC(C)C(=O)OCOc1c(OC)ccnc1C(=O)N[C@H]1COC(=O)[C@H](Cc2ccccc2)[C@@H](OC(=O)C(C)C)[C@H](C)OC1=O (stereo partly shown) [Compound 69]	> 80	> 80	> 80	75 to 100	< 80		> 80	> 80	< 25	75 to 100			
COc1ccnc(C(=O)N[C@H]2COC(=O)[C@H](Cc3ccccc3)[C@@H](OC(=O)C(C)C)[C@H](C)OC2=O)c1OCOC(=O)COCC(F)(F)F [Compound 70]	> 80	< 80	> 80	75 to 100	< 80		< 80	< 80	< 25	75 to 100			
COc1ccnc(C(=O)N[C@H]2COC(=O)[C@H](Cc3ccccc3)[C@@H](OC)[C@H](C)OC2=O)c1OCOC(C)=O [Compound 71]	> 80	> 80	> 80		< 80		> 80	< 80					
COCCOCCOCC(=O)OCOc1c(OC)ccnc1C(=O)N[C@H]1COC(=O)[C@H](Cc2ccccc2)[C@@H](OC(=O)C(C)C)[C@H](C)OC1=O [Compound 75]	> 80	> 80	> 80		< 80	75 to 100	> 80	< 80	< 25				
